Measured values taken from US20230339915A1 (Vertex Pharmaceuticals Incorporated, priority 2020, published 2023).

How the values were obtained:
[1] = molecular target: NL20 human bronchial epithelial cells expressing human Z-AAT (Homo sapiens (Human), UniProt P01009, E366K); assay: AAT Function Assay (MSD Assay NL20-SI Cell Line); type: cell-based; conditions: functionally active AAT (AAT-hNE complex, MSD) in supernatant of NL20 cells expressing human Z-AAT; read-out: NL20 Functional EC50
Method in brief: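 NL20 bronchial epithelial cells expressing Z-AAT, induced with 0.1 μM doxycycline, were treated with compound overnight. Functional AAT in supernatant was measured by complex formation with excess human neutrophil elastase, captured on anti-AAT plates, detected with Sulfo-tagged anti-elastase on MSD, and quantified against M-AAT standards (0.156–320 ng/mL).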

[2] = molecular target: purified Z-AAT protein from human plasma (Homo sapiens (Human), UniProt P01009, E366K); assay: Biochemical Assay (Z-AAT Elastase Activity Assay); conditions: purified Z-AAT pre-incubated with compound 1 hour, then human neutrophil elastase and fluorescent substrate
Method in brief: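 Purified plasma Z-AAT (20 nM) preincubated with compounds 1 h at room temperature, then 3 nM human neutrophil elastase added in PBS + 0.01% BRIJ35 for 30 min to form suicide complex. Residual elastase activity read immediately by fluorescence after adding 300 μM MeOSuc-AAPV-AMC substrate solution.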

purified Z-AAT protein from human plasma, sequence (P01009 25-418 E366K limits assumed): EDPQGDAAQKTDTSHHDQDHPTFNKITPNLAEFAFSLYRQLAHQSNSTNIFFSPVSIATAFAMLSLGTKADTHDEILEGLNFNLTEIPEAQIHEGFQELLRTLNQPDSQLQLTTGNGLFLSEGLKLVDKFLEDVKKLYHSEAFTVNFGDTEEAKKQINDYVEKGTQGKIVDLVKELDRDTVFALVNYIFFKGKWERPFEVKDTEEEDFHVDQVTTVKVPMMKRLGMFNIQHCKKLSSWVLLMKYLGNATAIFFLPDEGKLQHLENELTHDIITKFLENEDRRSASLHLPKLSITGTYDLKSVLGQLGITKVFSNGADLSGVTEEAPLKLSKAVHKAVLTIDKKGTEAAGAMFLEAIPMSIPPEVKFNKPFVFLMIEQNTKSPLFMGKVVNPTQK
NL20 human bronchial epithelial cells expressing human Z-AAT, sequence (P01009 25-418 E366K limits assumed): as above

| EC50 [1] | IC50 [2] | Compound |
| --- | --- | --- |
| 0.5 to 2 µM | > 5 µM | Cc1cc(-n2c(C(C)C)c(CC3(C(=O)O)CC3)c3cc(O)ccc32)ccc1F [Compound 104] |
| 0.5 to 2 µM | > 30 µM | Cc1cc(-n2c(C(C)C)c(C(C)CC(=O)O)c3cc(O)ccc32)ccc1F (centres unmarked) [Compound 176] |
| > 2 µM | > 30 µM | Cc1cc(-n2c(C(C)C)c([C@H]3C[C@@H](C(=O)O)C3)c3cc(O)ccc32)ccn1 [Compound 144] |
| > 2 µM | > 30 µM | O=C(O)[C@H]1C[C@H](Cc2c(C3CCOCC3)n(-c3ccc(F)cc3)c3ccc(O)cc23)C1 [Compound 36] |
| > 2 µM | > 30 µM | CC(C)c1c([C@H]2C[C@@H](C(=O)O)C2)c2cc(O)ccc2n1-c1ccc(F)c(F)c1 [Compound 142, cis-3-(1-(3,4-difluorophenyl)-5-hydroxy-2-isopropyl-1H-indol-3-yl)cyclobutane-1-carboxylic acid] |
| 0.5 to 2 µM | > 30 µM | Cc1cc(-n2c(C(C)C)c(CCCC(=O)O)c3cc(O)ccc32)ccc1F [Compound 96] |
| > 2 µM | > 30 µM | CCC(O)c1c(C#N)c2cc(O)ccc2n1-c1ccnc(C)c1 (centres unmarked) [Compound 192, 5-hydroxy-2-(I-hydroxypropyl)-1-(2-methylpyridin-4-yl)-1H-indole-3-carbonitrile] |
| > 2 µM | > 30 µM | Cc1cc(-n2c(C3CCOCC3)c([C@H]3C[C@](C(=O)O)(C(F)F)C3)c3cc(O)ccc32)ccc1F [Compound 123, cis-1-(difluoromethyl)-3-(1-(4-fluoro-3-methylphenyl)-5-hydroxy-2-(tetrahydro-2H-pyran-4-yl)-1H-indol-3-yl)cyclobutane-1-carboxylic acid] |
| > 2 µM | > 30 µM | Cc1cc(-n2c(C(C)C)c([C@@H]3CC[C@@H]3CO)c3cc(O)ccc32)ccc1F [Compound 227] |
| 0.5 to 2 µM | > 30 µM | Cc1cc(-n2c(C(C)C)c(C#N)c3cc(O)ccc32)ccc1F [Compound 187] |
| 0.5 to 2 µM | > 5 µM | Cc1cc(-n2c(C(C)C)c([C@H]3C[C@H](C(=O)O)C3)c3cc(O)c(F)cc32)ccc1F [Compound 68] |
| 0.5 to 2 µM | > 30 µM | N#Cc1c(C2CCOCC2)n(-c2ccc(F)cc2)c2ccc(O)cc12 [Compound 194, 1-(4-fluorophenyl)-5-hydroxy-2-(tetrahydro-2H-pyran-4-yl)-1H-indole-3-carbonitrile] |
| 0.5 to 2 µM | 2 to 5 µM | Cc1cc(-n2c(C(C)C)c([C@H]3C[C@](C)(C(=O)O)C3)c3c(F)c(O)c(F)cc32)ccc1F [Compound 22] |
| 0.5 to 2 µM | 2 to 5 µM | CC(C)c1c([C@H]2CC3(C[C@H](C(=O)O)C3)C2)c2cc(O)ccc2n1-c1ccc(F)c(F)c1 (some centres unmarked) [Compound 58] |
| < 0.5 µM | < 2 µM | COCC(C)(C)c1c(-c2ccc(C(=O)O)cc2)c2cc(O)c(Cl)cc2n1-c1ccc(F)cc1 [Compound 177, 4-(6-chloro-1-(4-fluorophenyl)-5-hydroxy-2-(1-methoxy-2-methylpropan-2-yl)-1H-indol-3-yl)benzoic acid] |
| 0.5 to 2 µM | > 30 µM | O=C(O)[C@H]1CC2(C1)C[C@H](c1c(C3CCOCC3)n(-c3ccc(F)c(F)c3)c3ccc(O)cc31)C2 (some centres unmarked) [Compound 42] |
| > 2 µM | > 30 µM | CCC(O)c1c(C#N)c2cc(O)ccc2n1-c1ccc(F)cc1 (racemic) [Compound 189, 1-(4-fluorophenyl)-5-hydroxy-2-(1-hydroxypropyl)indole-3-carbonitrile] |
| < 0.5 µM | > 5 µM | Cc1cc(-n2c(C(C)C)c([C@H]3C[C@](C)(C(=O)O)C3)c3cc(O)ccc32)ccc1F [Compound 95] |
| > 2 µM | > 5 µM | CC(C)c1c(C(C)CCC(=O)O)c2cc(O)ccc2n1-c1ccc(F)cc1 (centres unmarked) [Compound 92] |
| > 2 µM | > 5 µM | CNS(=O)(=O)N1CC(c2c(C(C)C)n(-c3ccc(F)c(C)c3)c3ccc(O)cc23)C1 [Compound 213, 3-(1-(4-fluoro-3-methylphenyl)-5-hydroxy-2-isopropyl-1H-indol-3-yl)-N-methylazetidine-1-sulfonamide] |
| > 2 µM | > 30 µM | Cc1cc(-n2c(C)c(CC(=O)O)c3cc(O)ccc32)ccc1F [Compound 162] |
| > 2 µM | > 30 µM | CC(=O)NS(=O)(=O)N1CC(c2c(C(C)C)n(-c3ccc(F)c(C)c3)c3ccc(O)cc23)C1 [Compound 214, N-((3-(1-(4-fluoro-3-methylphenyl)-5-hydroxy-2-isopropyl-1H-indol-3-yl)azetidin-1-yl)sulfonyl)acetamide] |
| > 2 µM | > 30 µM | Cc1cc(-n2c(C(C)C)c(C3COC(C(=O)O)C3)c3cc(O)ccc32)ccc1F (centres unmarked) [Compound 88] |
| > 2 µM | > 30 µM | O=C(O)[C@H]1C[C@H](c2c(C3CCOCC3)n(-c3ccc(F)cc3)c3ccc(O)cc32)C1 [Compound 45] |
| > 2 µM | > 30 µM | O=C(O)[C@H]1C[C@H](c2c(C3CCOCC3)n(-c3ccc(F)c(F)c3)c3ccc(O)cc32)C1 [Compound 116] |

| EC50 [1] | IC50 [2] | Compound |
| --- | --- | --- |
| < 0.5 µM | > 5 µM | O=C(O)C1CC2(C1)CC(c1c(C3CCOCC3)n(-c3ccc(F)c(Cl)c3)c3ccc(O)cc13)C2 (centres unmarked) [Compound 31] |
| 0.5 to 2 µM | > 30 µM | O=C(O)[C@H]1C[C@H](c2c(C3CCOCC3)n(-c3ccc(F)c(Cl)c3)c3ccc(O)cc32)C1 [Compound 114] |
| > 2 µM | > 30 µM | CCCn1c(C(C)(C)C)c(C#N)c2cc(O)ccc21 [Compound 205, 2-(tert-butyl)-5-hydroxy-1-propyl-1H-indole-3-carbonitrile] |
| > 2 µM | > 30 µM | O=C(O)[C@H]1C[C@@H](Cc2c(C3CCOCC3)n(-c3ccc(F)cc3)c3ccc(O)cc23)C1 [Compound 35] |
| 0.5 to 2 µM | > 5 µM | Cc1cc(-n2c(C(C)C)c([C@H]3C[C@@H](CC(=O)O)C3)c3cc(O)ccc32)ccc1F [Compound 63] |
| 0.5 to 2 µM | > 30 µM | Cc1cc(-n2c(C(C)C)c([C@H]3C[C@@](C)(C(=O)O)C3)c3c(F)c(O)c(F)cc32)ccc1F [Compound 23] |
| 0.5 to 2 µM | > 30 µM | Cc1cc(-n2c(C3CCOCC3)c([C@H]3CCC[C@@H](CC(=O)O)C3)c3cc(O)ccc32)ccc1F (racemic) [Compound 105, cis-2-(3-(1-(4-fluoro-3-methylphenyl)-5-hydroxy-2-(tetrahydro-2H-pyran-4-yl)-1H-indol-3-yl)cyclohexyl)acetic acid] |
| > 2 µM | > 30 µM | Cc1cc(-n2c(C3CCOCC3)c(CCC(F)(F)C(=O)O)c3cc(O)ccc32)ccc1F [Compound 10] |
| > 2 µM | > 30 µM | Cc1cc(-n2c(C3CC3)c([C@H]3C[C@@H]3C(=O)O)c3cc(O)ccc32)ccc1F [Compound 132] |
| > 2 µM | > 30 µM | Cc1cc(-n2c([C@@H]3CCOC3)c([C@H]3C[C@H](C(=O)O)C3)c3cc(O)ccc32)ccc1F [Compound 84] |
| > 2 µM | > 30 µM | O=C(O)[C@H]1C[C@@H](c2c(C3CCOCC3)n(-c3ccc(F)c(F)c3)c3ccc(O)cc32)C1 [Compound 117] |
| > 2 µM | > 30 µM | CC(C)c1c(-c2cccc(C(=O)O)c2)c2cc(O)ccc2n1C1CC(F)(F)C1 [Compound 180, 3-(1-(3,3-difluorocyclobutyl)-5-hydroxy-2-isopropyl-1H-indol-3-yl)benzoic acid] |
| > 2 µM | > 30 µM | C[C@]1(C(=O)O)C[C@@H](c2c(C3CCOCC3)n(-c3ccc(F)c(F)c3)c3ccc(O)cc32)C1 [Compound 40] |
| > 2 µM | > 30 µM | O=C(O)[C@]1(CF)C[C@H](c2c(C3CCOCC3)n(-c3ccc(F)c(Cl)c3)c3ccc(O)cc32)C1 [Compound 111] |
| > 2 µM | > 30 µM | Cc1cc(-n2c(C(C)C)c(C3CCOC(C(=O)O)C3)c3cc(O)ccc32)ccc1F (centres unmarked) [Compound 64] |
| > 2 µM | > 30 µM | COCC(C)(C)c1c([C@H]2C[C@H](C(=O)O)C2)c2cc(O)ccc2n1-c1ccc(F)c(C)c1 [Compound 73] |
| 0.5 to 2 µM | > 5 µM | Cc1cc(-n2c(C(C)C)c([C@H]3C[C@@H](c4nn[nH]n4)C3)c3cc(O)ccc32)ccc1F [Compound 217, 1-(4-fluoro-3-methyl-phenyl)-2-isopropyl-3-[3-(2H-tetrazol-5-yl)cyclobutyl]indol-5-ol] |
| > 2 µM | > 30 µM | Cc1cc(-n2c(C(C)C)c([C@@H]3C[C@H]3C(=O)O)c3cc(O)ccc32)ccc1F [Compound 135] |
| 0.5 to 2 µM | > 30 µM | N#Cc1c(C2CCC2)n(-c2ccccc2)c2ccc(O)cc12 [Compound 197] |
| > 2 µM | > 30 µM | CO[C@]1(C(=O)O)C[C@H](c2c(C3CCOCC3)n(-c3ccc(F)c(C)c3)c3ccc(O)cc32)C1 [Compound 15] |
| > 2 µM | > 30 µM | COCC(C)(C)c1c(C2CC(C(=O)O)C2)c2cc(O)ccc2n1-c1ccc(F)c(C)c1 (centres unmarked) [Compound 72] |
| 0.5 to 2 µM | > 5 µM | CC(C)c1c(CC2(C(=O)O)CC2)c2cc(O)ccc2n1-c1ccc(F)cc1 [Compound 71] |
| > 2 µM | > 30 µM | N#Cc1c(C2CCNCC2)n(-c2ccc(F)cc2)c2ccc(O)cc12 [Compound 200] |
| > 2 µM | > 30 µM | Cc1cc(-n2c(C(C)C)c([C@H]3C[C@H]3C(=O)O)c3cc(O)ccc32)ccc1F [Compound 128] |
